Experimental data published in ChEMBL document CHEMBL1201862, “PubChem BioAssay data set” (2004).
Activity calls are given as the source filed them.

Columns and labels:
[1] = biological target: Caspase-6 (Homo sapiens, UniProt P55212); assay: human caspase-6 inhibitors, dose response, biochemical, VEID-R110 fluorescence, cherry-pick (AID 720632)
[2] = biological target: Prothrombin (Homo sapiens, UniProt P00734); assay: Thrombin 1536 HTS Dose Response Confirmation. [Related pubchem assays: 1046 (Thrombin 1536 HTS; hits were confirmed in this assay)]; assay type: functional
[3] = system: Vero; assay: cytotoxicity of synthesized analogs in Vero 76, SAR follow-up, cytotoxicity control for West Nile virus antiviral project, Vero 76 cells (AID 2414); assay type: functional; conditions: Chlorocebus sabaeus
[4] = system: Vero; assay: cytotoxicity of synthesized analogs in Vero cells, SAR follow-up, cytotoxicity control for West Nile virus antiviral project, cell-based, set II (AID 2402); assay type: functional; conditions: Chlorocebus sabaeus
[5] = biological target: Neuropeptides B/W receptor type 1 (Homo sapiens, UniProt P48145); assay: Fluorescence-based dose response cell-based high throughput screening assay to identify antagonists of the G-protein coupled receptor 7 (GPR7). [Related pubchem assays: 1952 (Screening assay (GPR7 antagonists).), 1880 (Summary AID.)]; assay type: functional
[6] = biological target: Melanin-concentrating hormone receptor 1 (Homo sapiens, UniProt Q99705); assay: Fluorescence-based counterscreen for antagonists of the G-protein coupled receptor 7 (GPR7): cell-based high throughput dose response assay to identify antagonists of the melanin-concentrating hormone receptor 1 (MCHR1).; assay type: functional
[7] = inhibitors of Vif binding to APOBEC3G peptide, primary screen, biochemical, TR-FRET, GST-Vif 1-94, biotin-A3G peptide, dose response retest (AID 1117319); assay type: functional;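 note: TR-FRET signal of purified GST-Vif binding a biotinylated A3G peptide; inhibitors lower the FRET signal by blocking Vif and A3G binding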
[8] = biological target: T1, Protein Tat (Human immunodeficiency virus type 1 group M subtype B (isolate HXB2)(HIV-1), UniProt P04608); assay type: functional;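 note: tat binding to TAR RNA read out by fluorescence polarization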
T1 sequence (P04608 whole entry): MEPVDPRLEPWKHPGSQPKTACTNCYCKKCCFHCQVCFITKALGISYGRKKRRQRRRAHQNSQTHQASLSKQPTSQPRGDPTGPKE

[9] = Artemis endonuclease inhibitor potency, dose response, biochemical, fluorescence intensity (AID 720701); assay type: functional;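 note: Artemis endonuclease enzyme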
[10] = Vero cell cytotoxicity, dose response, cytotoxicity control for Vif-APOBEC3G degradation inhibitor project, Vero cells (AID 1117358); assay type: functional; conditions: Human immunodeficiency virus 1, Vero
[11] = P. falciparum late gametocyte killing, dose response, luminescence (AID 1117278); assay type: functional, cell-based;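 note: gametocytes exposed to compound for 24 hours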
[12] = Jurkat T cell cytotoxicity, dose response, cytotoxicity control for P. falciparum gametocyte viability project, luminescence (AID 1117277); assay type: functional, cell-based;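 note: potency reflects loss of cellular ATP meaning fewer viable cells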
[13] = biological target: T2, Heat shock factor protein 1 (Mus musculus, UniProt P38532); assay: inhibition of MG132-induced HSE-luciferase signal, confirmation, cell-based, NIH3T3, luminescence, dose retest (AID 2382); assay type: functional;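 note: NIH3T3 fibroblasts with HSF1-driven luciferase reporter stressed by proteasome inhibitor MG132; luminescence from HSF1-driven luciferase expression after 8 hours of MG132 stress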
T2 sequence (P38532 whole entry): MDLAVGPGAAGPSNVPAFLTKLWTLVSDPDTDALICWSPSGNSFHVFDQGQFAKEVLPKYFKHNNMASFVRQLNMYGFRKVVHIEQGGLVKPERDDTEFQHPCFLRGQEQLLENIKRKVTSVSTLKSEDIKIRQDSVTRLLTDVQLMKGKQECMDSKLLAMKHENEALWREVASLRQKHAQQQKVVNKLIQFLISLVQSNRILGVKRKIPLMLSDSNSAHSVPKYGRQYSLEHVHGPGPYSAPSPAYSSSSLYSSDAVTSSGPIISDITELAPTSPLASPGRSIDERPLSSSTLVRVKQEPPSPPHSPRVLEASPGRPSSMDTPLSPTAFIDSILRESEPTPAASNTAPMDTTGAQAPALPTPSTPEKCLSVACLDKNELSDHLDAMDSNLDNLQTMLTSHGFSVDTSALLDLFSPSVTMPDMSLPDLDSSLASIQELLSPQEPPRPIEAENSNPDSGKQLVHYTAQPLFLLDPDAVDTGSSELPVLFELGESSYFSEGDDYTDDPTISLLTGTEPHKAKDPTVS

[14] = biological target: E3 ubiquitin-protein ligase Mdm2 (Homo sapiens, UniProt Q00987); assay: enhancers of MDM2-luciferase reporter signal, concentration-effect titration, project on inhibitors of MDM2 ubiquitin ligase, cellular assay, luminescent readout, 384-well plate format (AID 1394); assay type: functional;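 note: MDM2 E3 inhibitors raise luminescence so EC50 is for signal enhancement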
[15] = biological target: RNA-editing ligase 1, mitochondrial (Trypanosoma brucei brucei, UniProt P86926); assay: TbREL1 ligase inhibitors, dose response, biochemical, fluorescence, Trypanosoma brucei (AID 1117295); assay type: functional
[16] = Counterscreen for inhibitors of Trypanosoma brucei methionyl tRNA synthetase (MetRS): Luminescence-based cell-based high throughput dose response assay to identify compounds that are cytotoxic to Jurkat human T lymphocyte cells.; assay type: functional
[17] = Late stage counterscreen for inhibitors of Trypanosoma brucei methionyl tRNA synthetase (MetRS): Luminescence-based cell-based high throughput dose response assay to identify compounds that are cytotoxic to Jurkat human T lymphocyte cells.; assay type: functional
[18] = biological target: T3, Methionyl-tRNA synthetase, putative (Trypanosoma brucei brucei, UniProt Q38C91); assay type: functional, Trypanosoma brucei brucei strain 927/4 GUTat10.1
T3 sequence (Q38C91 whole entry): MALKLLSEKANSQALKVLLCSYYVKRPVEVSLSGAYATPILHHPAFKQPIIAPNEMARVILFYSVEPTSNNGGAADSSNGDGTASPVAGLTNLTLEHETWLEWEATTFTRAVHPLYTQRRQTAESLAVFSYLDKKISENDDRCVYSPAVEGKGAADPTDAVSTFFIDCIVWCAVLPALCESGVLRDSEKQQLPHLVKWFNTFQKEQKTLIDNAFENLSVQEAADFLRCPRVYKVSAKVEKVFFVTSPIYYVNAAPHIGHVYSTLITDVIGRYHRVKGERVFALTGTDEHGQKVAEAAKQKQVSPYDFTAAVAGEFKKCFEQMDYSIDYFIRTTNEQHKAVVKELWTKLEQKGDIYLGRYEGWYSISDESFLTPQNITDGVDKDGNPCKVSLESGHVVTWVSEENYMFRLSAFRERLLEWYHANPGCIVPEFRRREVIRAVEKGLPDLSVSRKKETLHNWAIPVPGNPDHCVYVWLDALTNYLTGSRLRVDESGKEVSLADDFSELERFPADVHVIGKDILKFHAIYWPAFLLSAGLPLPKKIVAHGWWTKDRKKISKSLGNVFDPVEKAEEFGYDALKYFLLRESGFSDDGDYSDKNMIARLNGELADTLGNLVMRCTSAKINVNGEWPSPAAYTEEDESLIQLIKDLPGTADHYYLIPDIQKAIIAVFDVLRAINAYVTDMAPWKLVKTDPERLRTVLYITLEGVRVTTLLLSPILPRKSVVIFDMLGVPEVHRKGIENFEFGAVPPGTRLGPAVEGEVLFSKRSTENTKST

[19] = biological target: T3, Methionyl-tRNA synthetase, putative; assay type: functional, Trypanosoma brucei brucei strain 927/4 GUTat10.1; remark: listed apart in the source
[20] = T. cruzi growth inhibition in host cells, dose response, cell-based, plate reader, dry powder, set 2 (AID 652275); assay type: functional
[21] = growth inhibition of intracellular T. cruzi, dose response, cell-based, plate reader, dry powder samples (AID 651845); assay type: functional
[22] = NIH/3T3 fibroblast cytotoxicity, dose response, cytotoxicity control for T. cruzi growth inhibitor project, cell-based, cherry-pick samples, set 2 (AID 651817); assay type: functional; conditions: NIH3T3
[23] = Inhibition of Plasmodium falciparum NF54 Measured in Cell-Based System Using Plate Reader - 2138-11_Inhibitor_Dose_CherryPick_Activity.; assay type: functional
[24] = cytotoxicity in L-6 rat myocytes, dose response, cytotoxicity control, cell-based, plate reader, cherry-pick (AID 651896); assay type: functional
[25] = T. cruzi intracellular amastigote growth inhibition, dose response, imaging, CA-I/72 strain, bovine embryo skeletal muscle, dry powder (AID 651885); assay type: functional, cell-based
[26] = Inhibition of T. cruzi Tulahuen strain amastigotes in L-6 muscle cells Measured in Cell-Based and Microorganism Combination System Using Plate Reader - 2138-03_Inhibitor_Dose_CherryPick_Activity.; assay type: functional; conditions: Rattus norvegicus, L6
[27] = intracellular Trypanosoma cruzi inhibitors in host cells – cell-based, plate reader, cherry-pick samples, set 3, dose response (AID 651818); assay type: functional;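 note: compounds incubated with infected cells for about four days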
[28] = L. donovani amastigote growth inhibition, dose response, axenic amastigotes, plate reader, cherry pick (AID 651891); assay type: functional, cell-based; conditions: Leishmania donovani
[29] = T. b. rhodesiense proliferation inhibition, dose response, STIB900 strain, plate reader, cherry pick (AID 651893); assay type: functional, cell-based; conditions: Trypanosoma brucei
[30] = biological target: NAD-dependent protein deacylase sirtuin-5, mitochondrial (Homo sapiens, UniProt Q9NXA8); assay: SIRT5 deacylase inhibitors, dose response, biochemical, fluorescence imaging, cherry-pick, set 6 (AID 720597)
[31] = biological target: Paired box protein Pax-8 (Homo sapiens, UniProt Q06710); assay: inhibitors of PAX8-driven TPO luciferase reporter, dose response, RMG-I cells, cherry-pick (AID 687027); assay type: functional, cell-based;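 note: luciferase reporter driven by Pax8 target thyroperoxidase promoter measured by SteadyGlo luminescence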
[32] = A375 melanoma cell viability loss, dose response, counter-screen for MITF inhibitor project, CellTiter-Glo luminescence, dry powder, set 4 (AID 624364); assay type: functional, cell-based; conditions: A-375;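 note: A375 melanoma cells are MITF independent so this is a counter screen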
[33] = A375 melanoma cell cytotoxicity, dose response, counter-screen for MITF inhibitor project, CellTiter-Glo luminescence, dry powder, set 2 (AID 624489); assay type: functional, cell-based; conditions: A-375;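 note: actives are compounds lowering A375 viability meaning general cytotoxicity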
[34] = Mtb BioA inhibitors by displacement, dose response, biochemical, coupled fluorescence displacement, 20-point, dry powder (AID 743357); assay type: functional
[35] = HepG2 cell cytotoxicity, dose response, cytotoxicity control, cherry-picked samples (AID 1159577); assay type: functional, cell-based
[36] = P. falciparum Dd2 growth inhibitors, dose response, SYBR Green, cherry-picked samples (AID 1159567); assay type: functional, cell-based
[37] = biological target: G-protein coupled receptor 183 (Homo sapiens, UniProt P32249); assay: SAR confirmation of small molecule antagonists of the EBI2 receptor via a luminescent beta-arrestin assa.; assay type: functional
G-protein coupled receptor 183, sequence (P32249 whole entry): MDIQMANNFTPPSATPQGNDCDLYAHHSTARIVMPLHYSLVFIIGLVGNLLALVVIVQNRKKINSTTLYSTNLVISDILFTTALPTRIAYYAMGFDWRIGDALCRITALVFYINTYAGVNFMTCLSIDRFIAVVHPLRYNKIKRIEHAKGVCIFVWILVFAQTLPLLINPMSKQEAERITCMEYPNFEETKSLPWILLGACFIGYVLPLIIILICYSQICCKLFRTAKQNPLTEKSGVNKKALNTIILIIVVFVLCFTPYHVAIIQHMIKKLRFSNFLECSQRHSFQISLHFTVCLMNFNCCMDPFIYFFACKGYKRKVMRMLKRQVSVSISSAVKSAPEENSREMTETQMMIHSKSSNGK

E3 ubiquitin-protein ligase Mdm2, sequence (Q00987 whole entry): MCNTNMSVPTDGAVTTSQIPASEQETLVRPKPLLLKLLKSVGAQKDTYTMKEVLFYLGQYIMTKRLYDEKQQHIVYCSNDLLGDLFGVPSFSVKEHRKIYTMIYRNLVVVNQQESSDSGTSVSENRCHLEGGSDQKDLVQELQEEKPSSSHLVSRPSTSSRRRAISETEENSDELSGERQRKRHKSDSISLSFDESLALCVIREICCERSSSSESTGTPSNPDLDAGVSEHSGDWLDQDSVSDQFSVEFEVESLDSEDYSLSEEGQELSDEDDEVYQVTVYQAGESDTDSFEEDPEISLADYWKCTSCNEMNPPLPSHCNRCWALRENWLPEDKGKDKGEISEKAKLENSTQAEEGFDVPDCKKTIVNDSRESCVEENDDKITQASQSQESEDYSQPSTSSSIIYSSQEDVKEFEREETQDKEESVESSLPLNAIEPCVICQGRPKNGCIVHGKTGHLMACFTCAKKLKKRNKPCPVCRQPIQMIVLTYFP
RNA-editing ligase 1, mitochondrial, sequence (P86926 whole entry): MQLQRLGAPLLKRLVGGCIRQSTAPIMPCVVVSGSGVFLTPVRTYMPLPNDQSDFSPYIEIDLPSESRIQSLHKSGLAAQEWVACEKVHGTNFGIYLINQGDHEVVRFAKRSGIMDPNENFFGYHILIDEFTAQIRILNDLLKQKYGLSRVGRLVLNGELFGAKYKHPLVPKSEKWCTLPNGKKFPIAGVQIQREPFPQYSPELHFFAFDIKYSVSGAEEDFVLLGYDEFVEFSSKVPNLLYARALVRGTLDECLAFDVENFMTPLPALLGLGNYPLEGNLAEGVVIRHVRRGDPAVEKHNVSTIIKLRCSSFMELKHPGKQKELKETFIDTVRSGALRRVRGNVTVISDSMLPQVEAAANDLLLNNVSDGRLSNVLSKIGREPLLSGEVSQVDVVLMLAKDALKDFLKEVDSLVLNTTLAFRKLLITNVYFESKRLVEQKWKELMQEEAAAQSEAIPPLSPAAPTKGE
Melanin-concentrating hormone receptor 1, sequence (Q99705 whole entry): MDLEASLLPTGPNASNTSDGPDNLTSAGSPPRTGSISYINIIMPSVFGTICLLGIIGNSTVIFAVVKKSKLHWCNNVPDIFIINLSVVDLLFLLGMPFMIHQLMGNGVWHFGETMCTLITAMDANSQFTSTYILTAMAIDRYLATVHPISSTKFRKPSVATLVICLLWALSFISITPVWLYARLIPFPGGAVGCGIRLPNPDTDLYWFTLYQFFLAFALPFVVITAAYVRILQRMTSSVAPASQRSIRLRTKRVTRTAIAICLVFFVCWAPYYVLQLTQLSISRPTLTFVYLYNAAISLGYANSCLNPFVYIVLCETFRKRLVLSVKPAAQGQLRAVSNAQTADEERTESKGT
Neuropeptides B/W receptor type 1, sequence (P48145 whole entry): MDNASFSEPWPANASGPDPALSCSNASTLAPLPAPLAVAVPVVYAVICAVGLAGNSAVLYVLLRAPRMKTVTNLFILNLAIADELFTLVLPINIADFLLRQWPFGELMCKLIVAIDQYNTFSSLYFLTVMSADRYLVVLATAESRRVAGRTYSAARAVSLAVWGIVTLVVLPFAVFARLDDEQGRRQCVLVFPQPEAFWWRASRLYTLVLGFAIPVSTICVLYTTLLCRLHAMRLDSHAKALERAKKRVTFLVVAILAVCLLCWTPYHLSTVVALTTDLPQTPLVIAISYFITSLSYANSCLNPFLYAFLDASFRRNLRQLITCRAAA
Caspase-6, sequence (P55212 24-179 limits assumed): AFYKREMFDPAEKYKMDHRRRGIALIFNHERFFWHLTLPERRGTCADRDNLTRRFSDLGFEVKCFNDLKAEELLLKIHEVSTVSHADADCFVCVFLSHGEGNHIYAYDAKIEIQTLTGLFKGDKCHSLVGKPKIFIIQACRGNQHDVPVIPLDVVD
Caspase-6, sequence (P55212 194-293 limits assumed): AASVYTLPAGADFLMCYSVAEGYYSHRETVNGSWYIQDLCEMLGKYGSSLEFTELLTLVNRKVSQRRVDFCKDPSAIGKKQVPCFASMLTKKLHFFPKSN
NAD-dependent protein deacylase sirtuin-5, mitochondrial, sequence (Q9NXA8 whole entry): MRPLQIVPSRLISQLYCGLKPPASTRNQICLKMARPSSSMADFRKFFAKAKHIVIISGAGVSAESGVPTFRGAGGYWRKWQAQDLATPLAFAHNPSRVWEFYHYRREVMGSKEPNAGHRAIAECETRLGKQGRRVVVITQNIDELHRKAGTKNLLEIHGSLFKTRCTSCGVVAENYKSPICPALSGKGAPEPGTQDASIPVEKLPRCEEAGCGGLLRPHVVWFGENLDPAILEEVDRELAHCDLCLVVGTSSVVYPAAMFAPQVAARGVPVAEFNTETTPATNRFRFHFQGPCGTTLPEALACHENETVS
Paired box protein Pax-8, sequence (Q06710 whole entry): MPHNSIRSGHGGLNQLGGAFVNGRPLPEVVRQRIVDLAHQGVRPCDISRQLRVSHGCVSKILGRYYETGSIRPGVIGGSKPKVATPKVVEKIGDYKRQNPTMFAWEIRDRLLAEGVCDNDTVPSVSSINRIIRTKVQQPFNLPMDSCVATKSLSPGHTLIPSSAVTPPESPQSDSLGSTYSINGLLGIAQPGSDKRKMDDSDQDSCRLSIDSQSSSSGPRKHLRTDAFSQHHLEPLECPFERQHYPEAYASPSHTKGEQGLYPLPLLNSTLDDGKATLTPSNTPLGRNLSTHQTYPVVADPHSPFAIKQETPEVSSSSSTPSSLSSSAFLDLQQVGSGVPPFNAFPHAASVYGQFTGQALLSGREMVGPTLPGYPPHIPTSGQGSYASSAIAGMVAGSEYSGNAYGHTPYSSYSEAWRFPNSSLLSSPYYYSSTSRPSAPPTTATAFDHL

## CCO/C(O)=C1/C(C)=Nc2ccccc2N=C1NS(=O)(=O)c1cc(C(=O)O)ccc1Cl
[1]
  AC50: 28.8 µM (active)

## COc1cccc(-n2c(SCC(=O)Nc3ccc4c(c3)CCC4)nc3ccccc3c2=O)c1
[2]
  IC50: > 50 µM (not active)
[3]
  CC50: > 66.6 µM (active)
[4]
  CC50: > 100 µM (active)

## OC1(c2ccc(F)cc2)CC2CCC(C1)N2Cc1nnnn1C1CCCCC1 (configuration not stated)
[5]
  IC50: 28.3 µM (not active)
[6]
  IC50: 24 µM (not active)

## COc1ccc(C2CC(c3ccccc3)n3nc(NC(=O)c4cccs4)nc3N2)cc1 (configuration not stated)
[7]
  IC50: > 100 µM (active)
[8]
  IC50: > 100 µM (active)
[9]
  IC50: 6.96 µM (active)
[10]
  CC50: > 40 µM (active)

## Cc1cc(S(=O)(=O)N(Cc2ccccc2F)C2CC2)ccc1-n1cnnn1
[11]
  IC50: > 109 µM (inactive)
[12]
  IC50: > 83.2 µM (inactive)

## CCOC(=O)/C=C/C(=O)Nc1ccccc1-c1ccccc1NC(=O)/C=C/C(=O)OCC
[13]
  EC50: 14.4 µM (active)
[14]
  EC50: 4.34 µM (active)

## Cc1c(P(=S)(c2ccccc2)c2ccccc2)n2ccccc2[n+]1C/C=C/c1ccccc1
[15]
  IC50: > 96.6 µM (inactive)

## O=C(N/C(=C\c1cccnc1)c1nc2ccccc2[nH]1)c1cccc(Br)c1
[16]
  IC50: 83.3 µM (inactive)
[17]
  IC50: > 83.3 µM (inactive)
[18]
  IC50: 8.16 µM (active)
[19]
  IC50: 4.56 µM (active)

## C[C@H]1CN([C@@H](C)CO)C(=O)c2cccc(NC(=O)c3ccncc3)c2O[C@@H]1CN(C)Cc1ccc(C(F)(F)F)cc1
[20]
  AC50: 0.0127 µM (active)
[21]
  AC50: 0.0127 µM (active)
[22]
  AC50: 39 µM (inactive)
[23]
  IC50: 2.95 µM (inactive)
[24]
  IC50: 45.5 µM (inactive)
[25]
  IC50: 0.00601 µM (active)
[26]
  IC50: 2.95 µM (inactive)
[27]
  AC50: 0.304 µM (active)
[28]
  IC50: 16.3 µM (inactive)
[29]
  IC50: 3.49 µM (inactive)

## Cc1ccc(S(=O)(=O)N(C)C[C@@H]2OCCCC[C@H](C)Oc3ccc(NS(=O)(=O)c4ccc(Cl)cc4)cc3C(=O)N([C@H](C)CO)C[C@H]2C)cc1
[30]
  AC50: > 30 µM (inactive)
[31]
  AC50: 7.27 µM (active)

## O=C(NC1=C(N2CCCCC2)C(=O)c2ccccc2C1=O)c1ccccc1
[32]
  AC50: 54.4 µM (active)
[33]
  AC50: > 70 µM (inactive)

## CN1c2ccc(-c3cccc(F)c3)cc2[C@H]2[C@H](CCN2C(=O)CCCCCCC(=O)O)[C@H]1CO
[34]
  AC50: 16.7 µM (active)

## COc1ccccc1NC(=O)N1CCCCN2[C@@H](CO)[C@@H](c3ccc(C#CC4CC4)cc3)[C@@H]2C1
[35]
  AC50: 9.69 µM (active)
[36]
  AC50: 1.03 µM (active)

## Cc1cc(CN2CCN(C(=O)/C=C/c3ccc(Br)cc3)CC2)ccc1F
[37]
  IC50: 0.0015 µM (active)
